Data taken from patent publication US8258175B2, “Isoindolin-1-one derivatives” (Cancer Research Technology Limited, priority 2004, dated 2012).
Each block holds one compound with its values, some of them ahead of it. Where no end group is shown, it is not given here.

Key:
[1] = tested on: SJSA cells (MDM2 amplified); assay: Western blot of SJSA cells treated with compound; format: cell-based; conditions: SJSA cells, 5, 10 and 20 μM, lysed at 6 hours
Procedure: Osteosarcoma cell line SJSA-1 was plated out in 55 mm dishes at a density of 2.5×10^5 cells in 3 mL of RPMI 1640 medium (Sigma) supplemented with 10% foetal bovine serum (FBS, Gibco), 1% (v/v) HEPES (Gibco), 1% (v/v) sodium pyruvate (Gibco) and 1.25 g/500 ml glucose (Sigma) for 48 hours in a 37° C. humidified incubator (Sanyo, MCO 20AIC) at a CO2 concentration of 5%.
The dishes were treated with NU8231 at a final concentration of 5, 10, and 20 μM (at 1% DMSO) together with a 1% DMSO and an untreated control sample for 6 hours. The medium was then aspirated and the dishes were washed with 3 mL of cold PBS. The cells were then lysed in 40 μL of Sodium Dodecyl Sulphate (SDS, Sigma) lysis buffer, boiled at 100° C. for 10 minutes before sonication for 3×5 seconds at 20 microns (Soniprep 150, MSE).
The protein concentration for each of the samples was then determined using BCA Protein Assay Kit (Pierce), and 1:1 loading buffer consisting of β-mercaptoethanol (Sigma) and 0.5% bromophonol-blue (Sigma) were added to 40 μg of protein and made up to a final volume of 30 μL and boiled for 5 minutes at 100° C.
The samples were then loaded onto a precast 4-20% gradient polyacrylamide Tris-Glycine gels (15 wells, 1.5 mm thickness, Invitrogen Life Technologies), along with a pre-stained marker protein (SeeBlue, Invitrogen). The Gels were processed in Novex XCell (Invitrogen) at 180V and blotted onto a High Bond C membrane (Amersham Life Science) overnight at 30V.
The membrane was then blocked for one hour at room temperature in TBS-Tween containing 5% non-fat milk (TBST-M) followed by incubation with primary antibodies for MDM2 (MDM2-Ab1, 1:500, Oncogene), p53 (p53-D07, 1:1000, Novacastra), p21 (p21 Ab1, 1:100, Oncogene) and Actin (Actin AC40, 1:1000, Sigma) in PBST-M for 1 hour.
The membrane was then washed three times in TBST (15 minutes per wash) and then incubated for an additional 1 hour with a anti mouse or a rabbit horseradish peroxidase (HRP) secondary antibody (Dako, 1:1000) in PBST-M followed by a final wash consisting of six washes with TBST at 5 minutes per wash. […]

[2] = molecular target: T1, MDM2-p53 interaction (Homo sapiens, UniProt Q00987); assay: Preliminary screening, in vitro MDM2-p53 binding assay; conditions: preliminary screening studies; read-out: IC50 (inhibition of the MDM2-p53 interaction)
T1 construct: made in house; host or cells: in vitro translation (cell-free)
T1 sequence (Q00987 whole entry): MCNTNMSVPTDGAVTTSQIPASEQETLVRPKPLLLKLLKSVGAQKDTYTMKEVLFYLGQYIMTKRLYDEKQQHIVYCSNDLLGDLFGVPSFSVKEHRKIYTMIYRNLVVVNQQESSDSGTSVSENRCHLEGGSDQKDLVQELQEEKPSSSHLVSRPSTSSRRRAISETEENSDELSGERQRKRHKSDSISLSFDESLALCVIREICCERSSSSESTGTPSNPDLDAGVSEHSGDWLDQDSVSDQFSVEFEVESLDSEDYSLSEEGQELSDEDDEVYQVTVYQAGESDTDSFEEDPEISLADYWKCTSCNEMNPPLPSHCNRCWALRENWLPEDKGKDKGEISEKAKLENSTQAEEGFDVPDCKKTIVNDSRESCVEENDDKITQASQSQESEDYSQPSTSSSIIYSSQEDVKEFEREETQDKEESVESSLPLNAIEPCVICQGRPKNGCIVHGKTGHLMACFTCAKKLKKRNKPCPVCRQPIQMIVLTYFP
Description: Studies of the p53 binding pocket on the MDM2 protein guided the nature of the molecules synthesised. Thus the present invention provides small molecule inhibitors of MDM2-p53 interaction based on an isoindolinone scaffold.

[3] = molecular target: T1, MDM2-p53 interaction; assay: ELISA assay of MDM2-p53 complex formation (MDM2 binding to immobilised IP3 p53-derived peptide); conditions: n=3 independent determinations; 5% DMSO; interpolated from three standard concentrations
Procedure: Streptavidin-coated 96-well plates are used to immobilise a biotin-tagged IP3 p53-derived peptide ([…]). This is a peptide analogue derived from the p53 binding site for MDM2 ([…]). […] Aliquots of MDM2 generated by in vitro translation are pre-incubated for 20 minutes at room temperature (i.e. 20-25° C.) with test compounds and controls, before transfer into the IP3-coated 96-well plates. Following a further incubation period of 90 minutes at 4° C., the plates are washed to remove unbound MDM2 and the residual bound MDM2 is detected using a primary monoclonal antibody (MDM2 Ab-1, clone IF2, Oncogene Research Products) and HRP-conjugated secondary antibody (Goat anti-mouse, Dako PO447). The HRP (horseradish peroxidase) is measured by a chemiluminescence reaction using standard reagents (Amersham Pharmacia™ RPN 2106) and an automatic injection 96-well plate illuminometer (EG & G Berthold Microplate LB 96V).
Compound NU8231 is currently included as a standard “lead compound” positive control. […] The AP peptide is included as a positive control for biological evaluation of the isoindolinones in the cell free binding assays.
All compounds are dissolved in DMSO and tested at three standard concentrations (initially 20 μM, 100 μM and 500 μM) in the presence of a fixed final concentration of 5% DMSO. The percentage inhibition of complex formation is expressed relative to a DMSO only control and an IC50, defined as the concentration required for 50% inhibition of MDM2-p53 complex formation, determined by interpolation.

[4] = molecular target: MDM2 (Homo sapiens, UniProt Q00987); conditions: Stoll et al 2001; cited from earlier work
Sequence of MDM2 (Q00987 whole entry): as above

Compound: CCCN1C(=O)c2ccccc2C1(OCc1cc(OC)c(O)c(OC)c1)c1ccc(Cl)cc1 (stereo not drawn) [NU8231, 3-(4-Chlorophenyl)-3-(4-hydroxy-3,5-dimethoxybenzyloxy)-2-propyl-2,3-dihydroisoindolin-1-one]
- MDM2 level (Western blot) [1]: dose dependent increase
- p21 level (Western blot) [1]: dose dependent increase
- p53 levels (Western blot) [1]: No change

- IC50 [2]: ~200 µM
Compound: CCCNC1(c2ccccc2)c2ccccc2C(=O)N1Cc1ccccc1 (stereo not drawn) [NU8006, 2-benzyl-3-phenyl-3-(propylamino)isoindolin-1-one]

- melting point: 107 to 108 °C
- IC50 [3]: 92 ± 11 µM
Compound: CC(C)(C)c1ccc(COC2(c3ccccc3)c3ccccc3C(=O)N2Cc2ccccc2)cc1 (stereo not drawn) [NU8113, 2-Benzyl-3-(4-tert-butyl-benzyloxy)-3-phenyl-2,3-dihydro-isoindolin-1-one]

Compound: IP3: biotin-tagged p53-derived peptide (MPRFMDYWEGLN), analogue derived from the p53 binding site for MDM2 (also: biotin tag, place not given here)
- affinity for MDM2 relative to the native p53 peptide [4]: higher affinity for MDM2 than the native peptide

- IC50 [2]: ~200 µM
Compound: CCCOC1(c2ccccc2)c2ccccc2C(=O)N1Cc1ccccc1 (stereo not drawn) [NU8001, 2-benzyl-3-phenyl-3-propoxy isoindolin-1-one]

- IC50 [2]: ~200 µM
Compound: CCCOC1(c2ccccc2)c2ccccc2C(=O)N1CCC (stereo not drawn) [NU8009, 2-propyl-3-phenyl-3-propoxy isoindolinin-1-one]
